Measurements: the supplement of paper PMC11061612

How the values were obtained:
Carboplatin = compound: C1CC(C1)(C(=O)[O-])C(=O)[O-].N.N.[Pt+2] [Carboplatin]; conditions: max 10 µM
Outline: (§1)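 Following 24 hours at 37°C and 5% CO2, cancer cell lines in 1536-well plates with 7.5 μl DMEM/F12 or RPMI and 10% FBS were dosed for 72 hours, final DMSO typically being 0.2%. CellTiter-Glo 2.0 luminescence, scaled between blank-well and DMSO-well means, gave the viability readout. Dose responses were fitted to a two-parameter logistic curve with a non-linear mixed effects model, and the single-agent IC50 was derived from this fit.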

Crizotinib = compound: C[C@@H](Oc1cc(-c2cnn(C3CCNCC3)c2)cnc1N)c1c(Cl)ccc(F)c1Cl [Crizotinib]; conditions: max 10 µM
Outline: as §1

AZD5363 = compound: C1CN(CCC1(C(=O)N[C@@H](CCO)C2=CC=C(C=C2)Cl)N)C3=NC=NC4=C3C=CN4 [AZD5363]; conditions: max 10 µM
Outline: as §1

Taselisib = compound: Cc1nc(-c2cn3c(n2)-c2ccc(-c4cnn(C(C)(C)C(N)=O)c4)cc2OCC3)n(C(C)C)n1 [Taselisib]; conditions: max 10 µM
Outline: as §1

AZD5991 = compound: Cc1c2c(nn1C)CSCc1cc(n(C)n1)CSc1cc(c3ccccc3c1)OCCCc1c(C(=O)O)n(C)c3c-2c(Cl)ccc13 [AZD5991]; conditions: max 1 µM
Outline: as §1

AZD1775 = compound: C=CCn1c(=O)c2cnc(Nc3ccc(N4CCN(C)CC4)cc3)nc2n1-c1cccc(C(C)(C)O)n1 [AZD1775]
Outline: as §1

5-Fluorouracil = compound: O=c1[nH]cc(F)c(=O)[nH]1 [5-Fluorouracil]; conditions: max 20 µM
Outline: as §1

Selumetinib = compound: Cn1cnc2c(F)c(Nc3ccc(Br)cc3Cl)c(C(=O)NOCCO)cc21 [Selumetinib]; conditions: max 10 µM
Outline: as §1

AZD7648 = compound: Cc1cc2ncnn2cc1Nc1ncc2c(n1)n(C1CCOCC1)c(=O)n2C [AZD7648]; conditions: max 10 µM
Outline: as §1

Venetoclax = compound: CC1(C)CCC(CN2CCN(c3ccc(C(=O)NS(=O)(=O)c4ccc(NCC5CCOCC5)c([N+](=O)[O-])c4)c(Oc4cnc5[nH]ccc5c4)c3)CC2)=C(c2ccc(Cl)cc2)C1 [Venetoclax]; conditions: max 1 µM
Outline: as §1

AZD1390 = compound: CC(C)n1c(=O)n(C)c2cnc3cc(F)c(-c4ccc(OCCCN5CCCCC5)nc4)cc3c21 [AZD1390]; conditions: max 0.3 µM
Outline: as §1

Paclitaxel = compound: CC(=O)O[C@H]1C(=O)[C@@]2(C)[C@H]([C@H](OC(=O)c3ccccc3)[C@]3(O)C[C@H](OC(=O)[C@H](O)[C@@H](NC(=O)c4ccccc4)c4ccccc4)C(C)=C1C3(C)C)[C@]1(OC(C)=O)CO[C@@H]1C[C@@H]2O [Paclitaxel]; conditions: max 3 µM
Outline: as §1

AZD4320 = compound: CN(CC[C@H](CSC1=CC=CC=C1)NC2=C(C=C(C=C2)S(=O)(=O)NC(=O)C3=CC=C(C=C3)N4CCC(CC4)[C@H](C5=CC=CC=C5C6=CC=C(C=C6)Cl)O)S(=O)(=O)C(F)(F)F)CCO [AZD4320]; conditions: max 1 µM
Outline: as §1

Trametinib = compound: CC(=O)Nc1cccc(-n2c(=O)n(C3CC3)c(=O)c3c(Nc4ccc(I)cc4F)n(C)c(=O)c(C)c32)c1 [Trametinib]; conditions: max 1 µM
Outline: as §1

Gemcitabine = compound: Nc1ccn([C@@H]2O[C@H](CO)[C@@H](O)C2(F)F)c(=O)n1 [Gemcitabine]; conditions: max 0.3 µM
Outline: as §1

Alisertib = compound: COc1cc(Nc2ncc3c(n2)-c2ccc(Cl)cc2C(c2c(F)cccc2OC)=NC3)ccc1C(=O)O [Alisertib]; conditions: max 10 µM
Outline: as §1

SN-38 = compound: CCc1c2c(nc3ccc(O)cc13)-c1cc3c(c(=O)n1C2)COC(=O)[C@]3(O)CC [SN-38]; conditions: max 0.3 µM
Outline: as §1

Lapatinib = compound: CS(=O)(=O)CCNCc1ccc(-c2ccc3ncnc(Nc4ccc(OCc5cccc(F)c5)c(Cl)c4)c3c2)o1 [Lapatinib]; conditions: max 10 µM
Outline: as §1

Gefitinib = compound: COc1cc2ncnc(Nc3ccc(F)c(Cl)c3)c2cc1OCCCN1CCOCC1 [Gefitinib]; conditions: max 10 µM
Outline: as §1

Savolitinib = compound: C[C@@H](c1ccc2nccn2c1)n1nnc2ncc(-c3cnn(C)c3)nc21 [Savolitinib]; conditions: max 1 µM
Outline: as §1

AZD0156 = compound: CN(C)CCCOc1ccc(-c2ccc3ncc4c(c3c2)n(C2CCOCC2)c(=O)n4C)cn1 [AZD0156]
Outline: as §1

MK-2206 = compound: NC1(c2ccc(-c3nc4ccn5c(=O)[nH]nc5c4cc3-c3ccccc3)cc2)CCC1 [MK-2206]; conditions: max 10 µM
Outline: as §1

Olaparib = compound: O=C(c1cc(Cc2n[nH]c(=O)c3ccccc23)ccc1F)N1CCN(C(=O)C2CC2)CC1 [Olaparib]; conditions: max 10 µM
Outline: as §1

SG3199 = compound: CC1=CN2[C@@H](C1)C=NC3=CC(=C(C=C3C2=O)OC)OCCCCCOC4=C(C=C5C(=C4)N=C[C@@H]6CC(=CN6C5=O)C)OC [SG3199]; conditions: max 0.001 µM
Outline: as §1

AZD5153 = compound: COc1nnc2ccc(N3CCC(c4ccc(OCCN5CCN(C)C(=O)[C@H]5C)cc4)CC3)nn12 [AZD5153]; conditions: max 1 µM
Outline: as §1

Prexasertib = compound: COc1cccc(OCCCN)c1-c1cc(Nc2cnc(C#N)cn2)n[nH]1 [Prexasertib]; conditions: max 1 µM
Outline: as §1

[1] = compound: O=C(Nc1ccc2[nH]nc(-c3ccncc3)c2c1)[C@@H]1CCN(CC(=O)N2CCN(c3ccc(-c4ncccn4)cc3)CC2)C1; conditions: max 5 µM
Outline: as §1

Doxorubicin = compound: COc1cccc2c1C(=O)c1c(O)c3c(c(O)c1C2=O)C[C@@](O)(C(=O)CO)C[C@@H]3O[C@H]1C[C@H](N)[C@H](O)[C@H](C)O1 [Doxorubicin]; conditions: max 1 µM
Outline: as §1

Etoposide = compound: COc1cc([C@@H]2c3cc4c(cc3[C@@H](O[C@@H]3O[C@@H]5CO[C@@H](C)O[C@H]5[C@H](O)[C@H]3O)[C@H]3COC(=O)[C@H]23)OCO4)cc(OC)c1O [Etoposide]; conditions: max 10 µM
Outline: as §1

SRA737 = compound: N#Cc1cnc(Nc2cc(NC[C@H]3CNCCO3)c(C(F)(F)F)cn2)cn1 [SRA737]; conditions: max 10 µM
Outline: as §1

Dasatinib = compound: CC1=C(C(=CC=C1)Cl)NC(=O)C2=CN=C(S2)NC3=CC(=NC(=N3)C)N4CCN(CC4)CCO [Dasatinib]; conditions: max 2 µM
Outline: as §1

AZD8186 = compound: C[C@@H](Nc1cc(F)cc(F)c1)c1cc(C(=O)N(C)C)cc2c(=O)cc(N3CCOCC3)oc12 [AZD8186]; conditions: max 10 µM
Outline: as §1

Palbociclib = compound: CC(=O)c1c(C)c2cnc(Nc3ccc(N4CCNCC4)cn3)nc2n(C2CCCC2)c1=O [Palbociclib]; conditions: max 10 µM
Outline: as §1

AZD2811 = compound: CCN(CCO)CCCOc1ccc2c(Nc3cc(CC(=O)Nc4cccc(F)c4)[nH]n3)ncnc2c1 [AZD2811]; conditions: max 1 µM
Outline: as §1

AZD6738 = compound: C[C@@H]1COCCN1C2=NC(=NC(=C2)C3(CC3)[S@](=N)(=O)C)C4=C5C=CNC5=NC=C4 [AZD6738]; conditions: max 10 µM
Outline: as §1

Row | Cell Line | IC50, cell viability 72 h (Carboplatin) [nM] | IC50, cell viability 72 h (Crizotinib) [nM] | IC50, cell viability 72 h (AZD5363) [nM] | IC50, cell viability 72 h (Taselisib) [nM] | IC50, cell viability 72 h (AZD5991) [nM] | IC50, cell viability 72 h (AZD1775; max 3 µM) [nM] | IC50, cell viability 72 h (5-Fluorouracil) [nM] | IC50, cell viability 72 h (Selumetinib) [nM] | IC50, cell viability 72 h (AZD7648) [nM] | IC50, cell viability 72 h (Venetoclax) [nM] | IC50, cell viability 72 h (AZD1390) [nM] | IC50, cell viability 72 h (Paclitaxel) [nM] | IC50, cell viability 72 h (AZD4320) [nM] | IC50, cell viability 72 h (Trametinib) [nM] | IC50, cell viability 72 h (Gemcitabine) [nM] | IC50, cell viability 72 h (Alisertib) [nM] | IC50, cell viability 72 h (SN-38) [nM] | IC50, cell viability 72 h (Lapatinib) [nM] | IC50, cell viability 72 h (Gefitinib) [nM] | IC50, cell viability 72 h (Savolitinib) [nM] | IC50, cell viability 72 h (AZD0156; max 3 µM) [nM] | IC50, cell viability 72 h (MK-2206) [nM] | IC50, cell viability 72 h (Olaparib) [nM] | IC50, cell viability 72 h (SG3199) [nM] | IC50, cell viability 72 h (AZD5153) [nM] | IC50, cell viability 72 h (Prexasertib) [nM] | IC50, cell viability 72 h [1] [nM] | IC50, cell viability 72 h (Doxorubicin) [nM] | IC50, cell viability 72 h (Etoposide) [nM] | IC50, cell viability 72 h (SRA737) [nM] | IC50, cell viability 72 h (Dasatinib) [nM] | IC50, cell viability 72 h (AZD8186) [nM] | IC50, cell viability 72 h (Palbociclib) [nM] | IC50, cell viability 72 h (AZD2811) [nM] | IC50, cell viability 72 h (AZD6738) [nM] | IC50, cell viability 72 h (AZD1775; max 1 µM) [nM] | IC50, cell viability 72 h (AZD0156; max 1 µM) [nM]
1 | SAS (Oral Cavity Carcinoma) | > 10000 | > 10000 | > 10000 | 5190 | > 1000 | 511 | > 20000 | 6140 | > 10000 | > 1000 | > 300 | 77.7 | > 1000 | 191 | 13 | > 10000 | 2.92 | > 10000 | 9890 | > 1000 | > 3000 | > 10000 | > 10000 | > 1 | 115 | 59 | 479 | 226 | 1130 | > 10000 | > 2000 | > 10000 | 5610 | > 1000 | 4420 | – | –
2 | SNU-16 (Gastric Carcinoma) | > 10000 | 2800 | > 10000 | > 10000 | 170 | – | > 20000 | > 10000 | > 10000 | > 1000 | > 300 | < 3 | > 1000 | > 1000 | 6.96 | 106 | 22.9 | > 10000 | 9590 | > 1000 | – | > 10000 | > 10000 | > 1 | 241 | 10.1 | > 5000 | 301 | 5560 | 1200 | > 2000 | > 10000 | 6230 | 479 | 754 | 522 | > 1000
3 | SNU-449 (Hepatocellular Carcinoma) | > 10000 | > 10000 | > 10000 | > 10000 | > 1000 | > 3000 | > 20000 | > 10000 | > 10000 | > 1000 | > 300 | > 3000 | > 1000 | > 1000 | > 300 | > 10000 | > 300 | > 10000 | > 10000 | > 1000 | > 3000 | > 10000 | > 10000 | > 1 | > 1000 | > 1000 | > 5000 | > 1000 | > 10000 | > 10000 | 1260 | > 10000 | > 10000 | > 1000 | > 10000 | – | –
4 | SW1710 (Bladder Carcinoma) | > 10000 | > 10000 | > 10000 | > 10000 | > 1000 | > 3000 | > 20000 | > 10000 | > 10000 | > 1000 | > 300 | 15.1 | > 1000 | > 1000 | > 300 | > 10000 | > 300 | > 10000 | > 10000 | > 1000 | > 3000 | > 10000 | > 10000 | > 1 | > 1000 | 86.4 | > 5000 | > 1000 | > 10000 | > 10000 | 190 | > 10000 | > 10000 | > 1000 | > 10000 | – | –
5 | TGBC1TKB (Biliary Tract Carcinoma) | > 10000 | > 10000 | > 10000 | > 10000 | > 1000 | > 3000 | > 20000 | > 10000 | > 10000 | > 1000 | > 300 | 969 | > 1000 | > 1000 | > 300 | > 10000 | > 300 | > 10000 | > 10000 | > 1000 | > 3000 | > 10000 | > 10000 | > 1 | > 1000 | > 1000 | > 5000 | > 1000 | > 10000 | > 10000 | > 2000 | > 10000 | > 10000 | > 1000 | > 10000 | – | –
